The NIST ThermoML archive (doi:10.1016/j.tca.2006.01.020)
Numbers after ± are expanded uncertainties.

Details: 101.33 kPa, Crystal, Small (less than 1 g) adiabatic calorimetry

| Structure (SMILES) | molar entropy (10 K) | molar entropy (20 K) | molar entropy (30 K) | molar entropy (40 K) | molar entropy (50 K) | molar entropy (60 K) | molar entropy (70 K) | molar entropy (80 K) | molar entropy (90 K) | molar entropy (100 K) | molar entropy (120 K) | molar entropy (140 K) | molar entropy (160 K) | molar entropy (180 K) | molar entropy (200 K) | molar entropy (220 K) | molar entropy (240 K) | molar entropy (260 K) | molar entropy (280 K) | molar entropy (298.15 K) | also measured |
| --- | --- | --- | --- | --- | --- | --- | --- | --- | --- | --- | --- | --- | --- | --- | --- | --- | --- | --- | --- | --- | --- |
| [Ba+2].[Ce+4].[O-2].[O-2].[O-2] [barium cerium(IV) oxide] | 0.084 ± 0.025 J/K/mol | 1.242 ± 0.042 J/K/mol | 4.425 ± 0.15 J/K/mol | 9.136 ± 0.21 J/K/mol | 14.71 ± 0.29 J/K/mol | 20.8 ± 0.38 J/K/mol | 27.13 ± 0.48 J/K/mol | 33.51 ± 0.58 J/K/mol | 39.88 ± 0.71 J/K/mol | 46.2 ± 0.8 J/K/mol | 58.56 ± 0.99 J/K/mol | 70.43 ± 1.2 J/K/mol | 81.77 ± 1.4 J/K/mol | 92.55 ± 1.5 J/K/mol | 102.8 ± 1.7 J/K/mol | 112.5 ± 1.8 J/K/mol | 121.7 ± 2 J/K/mol | 130.4 ± 2.1 J/K/mol | 138.6 ± 2.2 J/K/mol | 145.8 ± 2.3 J/K/mol | molar entropy (300 K): 146.6 ± 2.4 J/K/mol |
| [Ba+2].[O-2].[O-2].[O-2].[Zr+4] [barium zirconium(IV) oxide] | 0.053 ± 0.024 J/K/mol | 0.666 ± 0.033 J/K/mol | 2.753 ± 0.13 J/K/mol | 6.284 ± 0.17 J/K/mol | 10.7 ± 0.23 J/K/mol | 15.67 ± 0.3 J/K/mol | 20.91 ± 0.38 J/K/mol | 26.27 ± 0.46 J/K/mol | 31.67 ± 0.59 J/K/mol | 37.05 ± 0.67 J/K/mol | 47.64 ± 0.83 J/K/mol | 57.88 ± 0.98 J/K/mol | 67.72 ± 1.1 J/K/mol | 77.16 ± 1.3 J/K/mol | 86.23 ± 1.4 J/K/mol | 94.92 ± 1.6 J/K/mol | 103.2 ± 1.7 J/K/mol | 111.2 ± 1.8 J/K/mol | 118.8 ± 1.9 J/K/mol | 125.5 ± 2 J/K/mol | molar entropy (300 K): 126.2 ± 2 J/K/mol |
